Measurements published in the supplement of paper PMC10307832.

Legend:
Assay in all cases: relative viability (nuclei count vs DMSO), 5 days (fraction); higher = more cells survive
NCI-H1944 = tested on: NCI-H1944
How it was run: (§1)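 Lung cancer cell lines in 1536-well plates got either a single drug or a fixed anchor-drug dose together with five library-drug doses (not always all listed) in √10 steps, by pin tool, on the day after seeding. Nuclei were counted after 5 days, and relative viability is the treated-to-vehicle ratio of nuclei counts. Values are medians of duplicate plates.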

NCI-H1651 = tested on: NCI-H1651
How it was run: as §1

NCI-H2087 = tested on: NCI-H2087
How it was run: as §1

HCC-15 = tested on: HCC-15
How it was run: as §1

NCI-H1975 = tested on: NCI-H1975
How it was run: as §1

HCC-827 = tested on: HCC-827
How it was run: as §1

NCI-H727 = tested on: NCI-H727
How it was run: as §1

NCI-H647 = tested on: NCI-H647
How it was run: as §1

NCI-H1792 = tested on: NCI-H1792
How it was run: as §1

NCI-H522 = tested on: NCI-H522
How it was run: as §1

NCI-H650 = tested on: NCI-H650
How it was run: as §1

NCI-H1755 = tested on: NCI-H1755
How it was run: as §1

NCI-H358 = tested on: NCI-H358
How it was run: as §1

H3255 = tested on: H3255
How it was run: as §1

EPLC-272H = tested on: EPLC-272H
How it was run: as §1

NCI-H1437 = tested on: NCI-H1437
How it was run: as §1

LCLC-103H = tested on: LCLC-103H
How it was run: as §1

COCC1(CO)C(=O)C2CCN1CC2 (stereo not given) [PRIMA-1MET] + NC(=O)Nc1cc(-c2cccc(F)c2)sc1C(=O)N[C@H]1CCCNC1 [AZD7762] (partner 0.2 µM)
relative viability (NCI-H1944; first compound 0.2 µM): 0.661 | relative viability (NCI-H1944; first compound 0.6325 µM): 0.43 | relative viability (NCI-H1944; first compound 2 µM): 0.381 | relative viability (NCI-H1944; first compound 6.325 µM): 0.533 | relative viability (NCI-H1944; first compound 20 µM): 0.511 | relative viability (NCI-H1651; first compound 0.2 µM): 0.442 | relative viability (NCI-H1651; first compound 0.6325 µM): 0.443 | relative viability (NCI-H1651; first compound 2 µM): 0.478 | relative viability (NCI-H1651; first compound 6.325 µM): 0.513 | relative viability (NCI-H1651; first compound 20 µM): 0.592 | relative viability (NCI-H2087; first compound 0.6325 µM): 1.35 | relative viability (NCI-H2087; first compound 2 µM): 1.29 | relative viability (NCI-H2087; first compound 6.325 µM): 1.25 | relative viability (NCI-H2087; first compound 20 µM): 0.938 | relative viability (HCC-15; first compound 0.2 µM): 1.17 | relative viability (HCC-15; first compound 0.6325 µM): 1.22 | relative viability (HCC-15; first compound 2 µM): 1.4 | relative viability (HCC-15; first compound 6.325 µM): 1.26 | relative viability (HCC-15; first compound 20 µM): 1.16 | relative viability (NCI-H1975; first compound 0.2 µM): 0.807 | relative viability (NCI-H1975; first compound 0.6325 µM): 0.648 | relative viability (NCI-H1975; first compound 2 µM): 0.651 | relative viability (NCI-H1975; first compound 6.325 µM): 0.811 | relative viability (NCI-H1975; first compound 20 µM): 0.181 | relative viability (HCC-827; first compound 0.2 µM): 0.206 | relative viability (HCC-827; first compound 0.6325 µM): 0.224 | relative viability (HCC-827; first compound 2 µM): 0.181 | relative viability (HCC-827; first compound 6.325 µM): 0.211 | relative viability (HCC-827; first compound 20 µM): 0.239 | relative viability (NCI-H727; first compound 0.2 µM): 0.505 | relative viability (NCI-H727; first compound 0.6325 µM): 0.62 | relative viability (NCI-H727; first compound 6.325 µM): 0.421 | relative viability (NCI-H727; first compound 20 µM): 0.349 | relative viability (NCI-H647; first compound 0.2 µM): 0.578 | relative viability (NCI-H647; first compound 0.6325 µM): 0.434 | relative viability (NCI-H647; first compound 2 µM): 0.38 | relative viability (NCI-H647; first compound 6.325 µM): 0.383 | relative viability (NCI-H647; first compound 20 µM): 0.137 | relative viability (NCI-H1792; first compound 0.2 µM): 0.569 | relative viability (NCI-H1792; first compound 6.325 µM): 0.907 | relative viability (NCI-H1792; first compound 20 µM): 0.429 | relative viability (NCI-H522; first compound 0.2 µM): 0.788 | relative viability (NCI-H522; first compound 0.6325 µM): 0.823 | relative viability (NCI-H522; first compound 2 µM): 0.838 | relative viability (NCI-H522; first compound 6.325 µM): 0.598 | relative viability (NCI-H522; first compound 20 µM): 0.283 | relative viability (NCI-H650; first compound 0.2 µM): 0.961 | relative viability (NCI-H650; first compound 0.6325 µM): 0.828 | relative viability (NCI-H650; first compound 2 µM): 0.983 | relative viability (NCI-H650; first compound 6.325 µM): 0.995 | relative viability (NCI-H650; first compound 20 µM): 0.148 | relative viability (NCI-H1755; first compound 0.2 µM): 0.414 | relative viability (NCI-H1755; first compound 0.6325 µM): 0.4 | relative viability (NCI-H1755; first compound 2 µM): 0.392 | relative viability (NCI-H1755; first compound 6.325 µM): 0.557 | relative viability (NCI-H1755; first compound 20 µM): 0.446 | relative viability (NCI-H358; first compound 0.2 µM): 0.592 | relative viability (NCI-H358; first compound 2 µM): 0.489 | relative viability (NCI-H358; first compound 6.325 µM): 0.484 | relative viability (NCI-H358; first compound 20 µM): 0.0265 | relative viability (H3255; first compound 0.2 µM): 0.945 | relative viability (H3255; first compound 0.6325 µM): 0.873 | relative viability (H3255; first compound 2 µM): 0.955 | relative viability (H3255; first compound 6.325 µM): 1.06 | relative viability (H3255; first compound 20 µM): 0.775 | relative viability (EPLC-272H; first compound 0.2 µM): 0.236 | relative viability (EPLC-272H; first compound 0.6325 µM): 0.123 | relative viability (EPLC-272H; first compound 2 µM): 0.178 | relative viability (EPLC-272H; first compound 6.325 µM): 0.262 | relative viability (EPLC-272H; first compound 20 µM): 0.147 | relative viability (NCI-H1437; first compound 0.2 µM): 1.16 | relative viability (NCI-H1437; first compound 0.6325 µM): 1.09 | relative viability (NCI-H1437; first compound 2 µM): 1.03 | relative viability (NCI-H1437; first compound 6.325 µM): 1.12 | relative viability (NCI-H1437; first compound 20 µM): 1.05 | relative viability (LCLC-103H; first compound 0.2 µM): 0.889 | relative viability (LCLC-103H; first compound 0.6325 µM): 0.732 | relative viability (LCLC-103H; first compound 2 µM): 0.673 | relative viability (LCLC-103H; first compound 6.325 µM): 0.768 | relative viability (LCLC-103H; first compound 20 µM): 0.756
